# Assay results reported in patent US4317917A, “Derivatives of methyl-substituted or methoxy-substituted 2-hydroxybenzoic acids, and pharmaceutical formulations containing them” (priority 1979, dated 1982).
# Assays:
# [1] = test system: Micrococcus tuberc. (bovis); assay: In vitro antibacterial activity, minimum inhibiting concentration (C.M.I.), Micrococcus tuberc. (bovis); assay type: cell-based; conditions: read-out: Minimum inhibiting concentration
# Experimental: (§1) The antiseptic power of the substance under examination was evaluated by determining the minimum inhibiting concentration (C.M.I.) on a series of Gram negative and Gram positive germs related to the pathology of the respiratory tree.
# (§2) The culture broth used was Difco nutrient broth, and 8 test samples were used for each concentration tested. Guaiacol was used as the comparison drug.
# Micrococcus pyogenes = assay: In vitro antibacterial activity, minimum inhibiting concentration (C.M.I.), Micrococcus pyogenes; assay type: cell-based; conditions: Staphylococcus aureus, Gram (+), Difco nutrient broth
# Experimental: as §1, §2
# stomachs = assay: Ulcerogenic action in the female Wistar rat; assay type: in vivo; conditions: four hours after treatment
# Experimental: The ulcerogenic action of the product was evaluated in the female Wistar rat in comparison with that of other known antiinflammatory drugs.
# The products were administered orally in a dose corresponding to about two fifths their LD50.
# The animals were sacrificed four hours after treatment, and the stomachs examined to check any presence of ulcers.
# edema induced by kaolin = assay: Antiinflammatory activity, edema by kaolin, diameter of the tibiotarsal joint; assay type: in vivo, rat
# Experimental: The antiedematous action of AF1 was also investigated by the test of Conbon and coll. (Arch.Int.Pharmacodyn. 99; 474, 1954), consisting of measuring the diameter of the tibiotarsal joint in both the rear paws of the rat. Groups of five animals representing controls and treated animals were used for two separate experiments. 0.2 ml of a sterile 10% kaolin suspension was injected directly into the joint of the two rear paws of each animal.
# The joint diameter was measured one hour after the kaolin injection and then every 24 hours afterwards for five consecutive days. The AF1 compound was administered intraperitoneally in a quantity of 100 mg/kg one hour after the kaolin injection and at the same time on the following days over the entire test period.
# [2] = Acute toxicity (LD50) in the Swiss mouse; conditions: in vivo, 95% reliability limits in brackets, seventh day
# Experimental: (§3) Acute toxicity of the product was studied in the Swiss mouse and Wistar rat by oral and intraperitoneal administration. The substance was carried in 5% gum arabic for both methods of administration. The volumes inoculated for both methods of administration were 20 ml/kg of body weight for the mouse and 5 ml/kg for the rat. The LD50 values expressed in mg/kg were calculated on the seventh day of treatment by the probital analysis method.
# [3] = test system: conjunctival sac of the eye of a rabbit; assay: Local tolerability check, conjunctival sac of the rabbit eye; assay type: in vivo; conditions: 0.5 solution dropped into conjunctival sac
# Haemophilus influeniae = assay: In vitro antibacterial activity, minimum inhibiting concentration (C.M.I.), Haemophilus influeniae; assay type: cell-based; conditions: Gram (-), Difco nutrient broth
# Experimental: as §1, §2
# painful reaction = assay: Analgesic activity in the mouse (method of Ben Bassat and coll.); assay type: in vivo; conditions: 100 mg/kg oral
# Experimental: The analgesic activity of the compound under examination was tested in the mouse by the method of Ben Bassat and coll. (Arch. Int. Pharmacodyn, 122, 434, 1954) and comparing the drug in question with Tanderil® (T).
# [4] = Acute toxicity (LD50) in the Wistar rat; conditions: in vivo, seventh day
# Experimental: as §3
# Micrococcus catarrhalis = assay: In vitro antibacterial activity, minimum inhibiting concentration (C.M.I.), Micrococcus catarrhalis; assay type: cell-based; conditions: Gram (-), Difco nutrient broth
# Experimental: as §1, §2
# [5] = test system: tissues where the drug was introduced; assay: Local tolerability check, intramuscular administration in the rat; assay type: in vivo; conditions: 60-120 mg/kg/die, 25 consecutive days
# [6] = test system: edema induced in the rear paw of the rat by carrageen; assay: Antiinflammatory activity, edema by carrageen in the rear paw of the rat (method of Winter); assay type: in vivo, Wistar rat
# Experimental: The antiinflammatory activity of AF1 was evaluated in comparison with that of a known drug (Tanderil®) by inhibiting the edema induced in the rear paw of the rat by carrageen. The method used is that described by Winter.
# The substances examined were administered orally to Wistar rats having a body weight of 165±15 g.
# The percentage edema inhibition for the various groups of animals was calculated by putting the average percentage increase of the control group equal to 100.
# Sarcina lutea = assay: In vitro antibacterial activity, minimum inhibiting concentration (C.M.I.), Sarcina lutea; assay type: cell-based; conditions: Micrococcus luteus, Gram (+), Difco nutrient broth
# Experimental: as §1, §2
# [7] = test system: gastric or duodenal lesion; assay: Gastric or duodenal lesions in mice treated for 5 consecutive days; assay type: in vivo; conditions: 200 mg/kg per day
# rat = assay: Subacute toxicity in the rat by intramuscular administration; assay type: in vivo; conditions: 60 and 120 mg/kg/die, 25 consecutive days
# Experimental: 2. Subacute toxicity in the rat by intramuscular administration
# The test was carried out for 25 consecutive days using drug doses of 60 and 120 mg/kg/die.
# [8] = day 1 after kaolin, 100 mg/kg/day intraperitoneally
# [9] = day 2 after kaolin, 100 mg/kg/day intraperitoneally
# [10] = day 3 after kaolin, 100 mg/kg/day intraperitoneally
# [11] = day 4 after kaolin, 100 mg/kg/day intraperitoneally
# [12] = day 5 after kaolin, 100 mg/kg/day intraperitoneally
structure (smiles),measurement,setting,value
"Cc1ccc(OC(=O)C=Cc2ccccc2)c(C(=O)O)c1 [AF1, 2-(3-phenyl-2-propenoyloxy)-5-methylbenzoic acid]",MIC,[1],3.15 mg/mL
same,MIC,Micrococcus pyogenes,16.6 mg/mL
same,No. of ulcerated animals/No. of treated animals,stomachs; 400 mg/kg oral,0/10
same,No. of ulcerated animals/No. of treated animals,stomachs; 800 mg/kg oral,1/10
same,"Average of diameters, treated animals",edema induced by kaolin; 0 + 1 hour after kaolin (time of first AF1 dose),6.9 mm
same,"Average of diameters, treated animals","edema induced by kaolin; day 0 (baseline, before AF1)",5.8 mm
same,% change in tibiotarsal joint diameter relative to controls,edema induced by kaolin; [8],-11.1%
same,"Average of diameters, treated animals",edema induced by kaolin; [8],8.8 mm
same,% change in tibiotarsal joint diameter relative to controls,edema induced by kaolin; [9],-14.7%
same,"Average of diameters, treated animals",edema induced by kaolin; [9],8.7 mm
same,% change in tibiotarsal joint diameter relative to controls,edema induced by kaolin; [10],-26.6%
same,"Average of diameters, treated animals",edema induced by kaolin; [10],8.0 mm
same,% change in tibiotarsal joint diameter relative to controls,edema induced by kaolin; [11],-23.3%
same,"Average of diameters, treated animals",edema induced by kaolin; [11],7.9 mm
same,% change in tibiotarsal joint diameter relative to controls,edema induced by kaolin; [12],-25.7%
same,"Average of diameters, treated animals",edema induced by kaolin; [12],7.5 mm
same,LD50 at 168 h,[2]; ip,410 mg/kg
same,LD50 at 168 h,[2]; oral,902 mg/kg
same,irritating or damaging modification to local tissues,[3],no irritating or otherwise damaging modification to local tissues
same,MIC,Haemophilus influeniae,16 mg/mL
same,% Increase in the painful reaction time relative to the controls,painful reaction; 30 min.,22%
same,% Increase in the painful reaction time relative to the controls,painful reaction; 60 min.,32%
same,% Increase in the painful reaction time relative to the controls,painful reaction; 90 min.,36%
same,% Increase in the painful reaction time relative to the controls,painful reaction; 120 min.,48%
same,% Increase in the painful reaction time relative to the controls,painful reaction; 150 min.,51%
same,LD50 at 168 h,"[4]; ip, 95% reliability limits in brackets",734 mg/kg
same,LD50 at 168 h,[4]; oral,> 2000 mg/kg
same,MIC,Micrococcus catarrhalis,4.3 mg/mL
same,macroscopic change in the tissues where the drug was introduced,[5],no macroscopic change in the tissues where the drug was introduced
same,other undesirable local phenomena,[5],neither were other undesirable local phenomena observed
same,Percentage edema inhibition relative to the controls,"[6]; 25 mg/kg oral, 4 hours",42%
same,Percentage edema inhibition relative to the controls,"[6]; 25 mg/kg oral, 6 hours",71%
same,Percentage edema inhibition relative to the controls,"[6]; 50 mg/kg oral, 4 hours",62%
same,Percentage edema inhibition relative to the controls,"[6]; 50 mg/kg oral, 6 hours",84%
same,Percentage edema inhibition relative to the controls,"[6]; 75 mg/kg oral, 4 hours",73%
same,Percentage edema inhibition relative to the controls,"[6]; 75 mg/kg oral, 6 hours",87%
same,MIC,Sarcina lutea,9.15 mg/mL
same,gastric or duodenal lesion,[7],no sign of any gastric or duodenal lesion
same,condition of the rats,rat,always excellent
same,significant changes in general condition and weight,rat,neither were there significant changes in general condition and weight
"COc1ccccc1O [Guaiacol, reference compound]",MIC,[1],33 mg/mL
same,MIC,Micrococcus pyogenes,33 mg/mL
same,MIC,Haemophilus influeniae,33 mg/mL
same,MIC,Micrococcus catarrhalis,16.6 mg/mL
same,MIC,Sarcina lutea,33 mg/mL
"COc1ccc2cc([C@H](C)C(=O)O)ccc2c1 [Naproxen, reference compound]",No. of ulcerated animals/No. of treated animals,stomachs; 200 mg/kg oral,5/10
"CCCCC1C(=O)N(c2ccccc2)N(c2ccc(O)cc2)C1=O (stereo not shown) [Tanderil, reference compound]",% Increase in the painful reaction time relative to the controls,painful reaction; 30 min.,11%
same,% Increase in the painful reaction time relative to the controls,painful reaction; 60 min.,14%
same,% Increase in the painful reaction time relative to the controls,painful reaction; 90 min.,15%
same,% Increase in the painful reaction time relative to the controls,painful reaction; 120 min.,20%
same,% Increase in the painful reaction time relative to the controls,painful reaction; 150 min.,21%
same,Percentage edema inhibition relative to the controls,"[6]; 25 mg/kg oral, 4 hours",58%
same,Percentage edema inhibition relative to the controls,"[6]; 25 mg/kg oral, 6 hours",68%
same,Percentage edema inhibition relative to the controls,"[6]; 50 mg/kg oral, 4 hours",56%
same,Percentage edema inhibition relative to the controls,"[6]; 50 mg/kg oral, 6 hours",78%
